By MBC is commonly meant the lowest tested concentration that kills the bacteria rather than only halting them. As usually defined, the MIC is the smallest concentration in the dilution series that meets the test's criterion for growth inhibition.

≈ marks a conversion by molar mass, not a printed value.

The source of these data is patent US20080107707A1, “POLYMERIZABLE ANTIMICROBIAL COMPOSITION” (REGENTS OF THE UNIVERSITY OF COLORADO, priority 2006, published 2008).

In data set [1] the test system is S. epidermidis ATCC 12228. The data set is described as follows: Minimum bactericidal concentration (MBC), plating of broth dilution tubes. It counts as cell-based, Staphylococcus epidermidis. As for the experimental part:
The MBC is another parameter used to assess the usefulness of an antibacterial. It provides some measure of the concentration of agent required to kill bacteria, not just inhibit their growth. In this test, 10 μL of media from each tube were plated on trypticase soy agar (TSA) plates with 5% sheep blood (Becton, Dickinson, and Co., Sparks, Md.) and grown for 24 hr. at 37° C. The MBC was taken to be the lowest VPA concentration at which no colonies were observed.
In general terms: Broth dilution looks for growth in wells or tubes with falling amounts of substance.

Data set [2] concerns S. epidermidis ATCC 12228. The data set is described as follows: Minimum inhibitory concentration (MIC), broth dilution method. It counts as cell-based, Staphylococcus epidermidis. Here is the method: The minimum inhibitory concentration (MIC) and minimum bactericidal concentration (MBC) of the monomer were determined by the broth dilution method. Various amounts of VPA were added to 1 mL of brain heart infusion media (BHI) (Becton, Dickinson, and Co., Sparks, Md.) along with 1×10^5 cfu of S. epidermidis ATCC 12228 (MicroBiologics, Inc., St. Cloud, Minn.) using aseptic technique. Cultures were incubated for 24 hr. at 37° C. The MIC was taken to be the lowest VPA concentration at which no turbidity was observed.

For the molecule `CN[C@H](CC(C)C)C(=O)N[C@H]1C(=O)N[C@@H](CC(N)=O)C(=O)N[C@H]2C(=O)N[C@H]3C(=O)N[C@H](C(=O)N[C@H](C(=O)O)c4cc(O)cc(O)c4-c4cc3ccc4O)[C@H](O)c3ccc(c(Cl)c3)Oc3cc2cc(c3O[C@@H]2O[C@H](CO)[C@@H](O)[C@H](O)[C@H]2O[C@H]2C[C@](C)(N)[C@H](O)[C@H](C)O2)Oc2ccc(cc2Cl)[C@H]1O` [vancomycin, reference compound], in data set [1] (Staphylococcus epidermidis, ATCC12228), the MBC was 1.12 ± 0.04 µM (≈ 1.62 µg/mL).

Regarding vancomycin-PEG(3400)-acrylate [VPA], in data set [2] (1×10^5 cfu in 1 mL BHI, 24 hr at 37° C, mean ±std. dev.), the “MIC (lowest concentration at which no turbidity was observed)” value was 11.5 ± 0.8 µg/mL. This molecule also came in with an MIC in data set [2] (S. epidermidis ATCC 12228, broth dilution) of 2.35 ± 0.15 µM. Besides, the “MBC (lowest concentration at which no colonies were observed)” value in data set [1] (10 μL plated on TSA 5% sheep blood, 24 hr at 37° C, mean ±std. dev.) is 15 ± 1 µg/mL. In addition, the MBC in data set [1] (S. epidermidis ATCC 12228) amounted to 3.0 ± 0.2 µM.
